According to US20250123280A1, “LABEL-FREE DETECTION OF PROTEASE ACTIVITY” (OREGON HEALTH & SCIENCE UNIVERSITY, priority 2021, published 2025):
“And” between values parts separate entries of the source, which are not always exact repeats. Equal values may be shown once. Peptide text beside a SMILES is read from it. * marks the point of attachment. Fmoc = O=C(OCC1c2ccccc2-c2ccccc21)*

What was measured:
legumain [1] = target: T1, legumain (Mus musculus, UniProt O89017); assay: Legumain activity detection in human plasma (peptide 1/ThT); assay type: biochemical
T1 construct: purchased Novus Biologicals
T1 sequence (O89017 18-325 limits assumed): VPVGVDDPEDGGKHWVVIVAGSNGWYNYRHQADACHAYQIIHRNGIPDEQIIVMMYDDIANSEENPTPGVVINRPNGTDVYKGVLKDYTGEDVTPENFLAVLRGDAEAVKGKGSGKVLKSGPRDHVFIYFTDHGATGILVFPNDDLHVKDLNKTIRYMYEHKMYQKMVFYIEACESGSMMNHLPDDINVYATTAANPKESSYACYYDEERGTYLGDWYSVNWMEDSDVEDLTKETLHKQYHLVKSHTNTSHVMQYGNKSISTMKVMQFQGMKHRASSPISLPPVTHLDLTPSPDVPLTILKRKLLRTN
Experimental: In the peptide concentration experiment, appropriate amounts of peptide 1 stock solution (10 mg/mL) were diluted in PBS and mixed with the MES buffer containing legumain, as described above, to give the final peptide concentrations between 0.05 and 1 mg/mL in the assay. In kinetic studies, ThT solution was mixed with the peptide immediately before the addition of activated legumain, and the plate was incubated in a Spark 20M microplate reader (Tecan) at 37° C. for 3 hours, and ThT fluorescence was recorded every 4 minutes. For the inhibitor experiment, the legumain inhibitor, RR-11a, was first dissolved in DMSO (1 mM), and appropriate amounts of inhibitor were incubated with legumain for about 1.0 hour at room temperature in 96 well plates. Finally, the legumain solutions incubated with different amounts of inhibitor were mixed with the peptide 1 solution, and the assay was performed as described above. […]
To assess the possibility of using the developed self-assembling polypeptides and methods in complex biological environments, legumain detection experiments in human plasma were performed. In initial studies, a background fluorescence signal in plasma (20%) was detected due to the nonspecific interactions between ThT and plasma proteins (see FIG. 24A) (Rovnyagina, N. R. et al., Binding of Thioflavin T by Albumins: An Underestimated Role of Protein Oligomeric Heterogeneity. Int. J. Biol. Macromol. 2018, 108, 284-290). While this background signal was relatively strong, the incubation of peptide 1 in legumain (1000 ng/mL) spiked plasma still produced a detectable fluorescence enhancement (about 2.5 fold) after the addition of ThT (90 μM). […]
Having a better understanding of the assay's background fluorescence, further studies were performed to optimize the assay performance in plasma. To reduce the background fluorescence, the assay was run in plasma using lower ThT concentrations (see FIGS. 26A and 26B). […] In the optimized assay conditions, a fluorescence enhancement of about 20 fold was obtained in 10% plasma at the legumain concentration of 1000 ng/mL as shown in FIG. 12A. […]

legumain [2] = target: T1, legumain; assay: Legumain assay with peptide 1 and Thioflavin T in buffer; assay type: biochemical
Experimental: Legumain activation. To activate legumain, 5 μL of prolegumain solution (0.5 mg/mL in Tris buffer containing 10% glycerol) was mixed with 20 μL of activation buffer (50 mM Sodium Acetate, 100 mM NaCl, pH 4.0) and incubated at 37° C. for 2 h. It was then diluted in 225 μL of legumain assay buffer (50 mM MES, 250 mM NaCl, pH 5) to give a final legumain concentration of 10 μg/mL and immediately used in the assay.
Legumain assay. In a typical assay, peptide 1 was first dissolved in ultrapure water containing 25% DMSO at a peptide concentration of 10 mg/mL. It was then diluted in phosphate-buffered saline (PBS, pH 7.4, 10 mM) to give a peptide concentration of 2 mg/mL. Next, 50 μL of the peptide solution was mixed with 50 μL of MES buffer (50 mM MES, 250 mM NaCl, pH 5) containing activated legumain at different concentrations (0-2000 ng/mL) in a 96 well plate and the plate was incubated at 37° C. for 2 h. Note that the final peptide concentration was 1 mg/mL and final legumain concentrations were between 0 and 1000 ng/mL. Finally, 10 μL of ThT solution (1 mM, in ultrapure water) was added to each well, and ThT fluorescence was measured using a Spark 20M microplate reader (Tecan) after 15-30 min incubation at room temperature.
In the peptide concentration experiment, appropriate amounts of peptide 1 stock solution (10 mg/mL) were diluted in PBS and mixed with the MES buffer containing legumain, as described above, to give the final peptide concentrations between 0.05 and 1 mg/mL in the assay. In kinetic studies, ThT solution was mixed with the peptide immediately before the addition of activated legumain, and the plate was incubated in a Spark 20M microplate reader (Tecan) at 37° C. for 3 hours, and ThT fluorescence was recorded every 4 minutes. For the inhibitor experiment, the legumain inhibitor, RR-11a, was first dissolved in DMSO (1 mM), and appropriate amounts of inhibitor were incubated with legumain for about 1.0 hour at room temperature in 96 well plates. Finally, the legumain solutions incubated with different amounts of inhibitor were mixed with the peptide 1 solution, and the assay was performed as described above. For the experiments in plasma, 10 μL or 20 μL of PBS in the wells were replaced with human plasma to achieve final plasma concentrations of 10% and 20%, respectively.

[3] = Solubility in aqueous solutions; assay type: physicochemical

fluorescence enhancement (legumain [1]; 10% plasma, ThT 25 μM, legumain 1000 ng/mL): about 20 fold
fluorescence enhancement (legumain [1]; 20% plasma spiked with legumain 1000 ng/mL, ThT 90 μM): about 2.5 fold
ON/OFF ratio of the assay (legumain [1]; albumin depleted 20% plasma): about 10
fluorescence intensity at 24 hours compared with the intensity at two hours (legumain [2]; 1000 ng/mL legumain): about 2.5
enhancement in the ThT emission intensity (legumain [2]; 1000 ng/mL legumain, about two hours, peptide 1 1 mg/mL, ThT 90 μM): about 32 fold
enhancement in ThT emission (legumain [2]; 1 mg/mL peptide concentration, legumain 500 ng/mL): 28 fold
fluorescence enhancement (legumain [2]; legumain 10.0 ng/mL, about two hours, ThT 90 μM): about 1.3 fold
fluorescence enhancement (legumain [2]; legumain 25.0 ng/mL, about two hours, ThT 90 μM): about 3 fold
limit of detection (LOD) (legumain [2]; legumain, buffer): about 12 ng/mL and 0.21 nM
limit of quantification (LOQ) (legumain [2]; legumain, buffer): about 25 ng/mL and 0.45 nM
enhancement in the ThT fluorescence in the absence of legumain (legumain [2]; no legumain, up to the highest peptide concentration (1.0 mg/mL)): no significant enhancement
enhancement in the ThT emission (legumain [2]; peptide 1 1.0 mg/mL, ThT 90 μM, no legumain): 1.4 fold
ThT emission intensity increase (legumain [2]; peptide concentration below 0.25 mg/mL, legumain 500 ng/mL): 1.3-1.4 fold
solubility in aqueous solutions [3]: good solubility
SMILES: C[C@H](NC(=O)[C@H](C)NC(=O)[C@H](CCC(=O)O)NC(=O)[C@H](Cc1ccccc1)NC(=O)[C@H](CCCCN)NC(=O)[C@H](Cc1ccccc1)NC(=O)OCC1c2ccccc2-c2ccccc21)C(=O)N[C@@H](CC(N)=O)C(=O)NCC(=O)N[C@@H](CCC(=O)O)C(=O)N[C@@H](CCC(=O)O)C(=O)NCC(=O)N[C@@H](CO)C(=O)NCC(=O)N[C@@H](CCC(=O)O)C(=O)N[C@@H](CCC(=O)O)C(=O)O [peptide 1] (Fmoc-FKFEAANGEEGSGEE-OH; C-terminus assumed)
